Data reported in patent publication US12077503B2, “Substituted cyclic amides and their use as herbicides” (FMC CORPORATION, priority 2015, dated 2024).

Legend:
Format in all cases: in vivo
[1] = test system: corn (Zea mays); assay: Test C preemergence; details: for Plant response rating, Corn: scale 0 to 100, 0 no effect, 100 complete control
Procedure, shortened: (§1)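 Assessment: visual, 13–15 d after treatment, 0 (no effect) to 100 (complete control) relative to controls. Treatment: preemergence to seeds in loam-sand soil, or postemergence to 1- to 4-leaf plants in peat-based medium. Formulation: non-phytotoxic solvent mixture with surfactant.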

[2] = test system: morningglory (Ipomoea coccinea); assay: Test C preemergence; details: for Plant response rating, Morningglory: scale 0 to 100, 0 no effect, 100 complete control
Procedure, shortened: as §1

[3] = test system: nutsedge, yellow (yellow nutsedge, Cyperus esculentus); assay: Test C preemergence; details: for Plant response rating, Nutsedge, Yellow: scale 0 to 100, 0 no effect, 100 complete control
Procedure, shortened: as §1

[4] = test system: barnyardgrass (Echinochloa crus-galli); assay: Test C preemergence; details: for Plant response rating, Barnyardgrass: scale 0 to 100, 0 no effect, 100 complete control
Procedure, shortened: as §1

[5] = test system: foxtail, giant (giant foxtail, Setaria faberii); assay: Test C preemergence; details: for Plant response rating, Foxtail, Giant: scale 0 to 100, 0 no effect, 100 complete control
Procedure, shortened: as §1

[6] = test system: wheat (winter wheat, Triticum aestivum); assay: Test C preemergence; details: for Plant response rating, Wheat: scale 0 to 100, 0 no effect, 100 complete control
Procedure, shortened: as §1

[7] = test system: ragweed (common ragweed, Ambrosia elatior); assay: Test C preemergence; details: for Plant response rating, Ragweed: scale 0 to 100, 0 no effect, 100 complete control
Procedure, shortened: as §1

[8] = test system: blackgrass (Alopecurus myosuroides); assay: Test C preemergence; details: for Plant response rating, Blackgrass: scale 0 to 100, 0 no effect, 100 complete control
Procedure, shortened: as §1

[9] = test system: ryegrass, Italian (Italian ryegrass, Lolium multiflorum); assay: Test C preemergence; details: for Plant response rating, Ryegrass, Italian: scale 0 to 100, 0 no effect, 100 complete control
Procedure, shortened: as §1

[10] = test system: velvetleaf (Abutilon theophrasti); assay: Test C preemergence; details: for Plant response rating, Velvetleaf: scale 0 to 100, 0 no effect, 100 complete control
Procedure, shortened: as §1

[11] = test system: soybean (Glycine max); assay: Test C preemergence; details: for Plant response rating, Soybean: scale 0 to 100, 0 no effect, 100 complete control
Procedure, shortened: as §1

[12] = test system: oilseed rape (Brassica napus); assay: Test C preemergence; details: for Plant response rating, Oilseed Rape: scale 0 to 100, 0 no effect, 100 complete control
Procedure, shortened: as §1

[13] = test system: pigweed (Amaranthus retroflexus); assay: Test C preemergence; details: for Plant response rating, Pigweed: scale 0 to 100, 0 no effect, 100 complete control
Procedure, shortened: as §1

[14] = test system: Galium (catchweed bedstraw, Galium aparine); assay: Test C preemergence; details: for Plant response rating, Galium: scale 0 to 100, 0 no effect, 100 complete control
Procedure, shortened: as §1

[15] = test system: waterhemp (common waterhemp, Amaranthus rudis); assay: Test C preemergence; details: for Plant response rating, Waterhemp: scale 0 to 100, 0 no effect, 100 complete control
Procedure, shortened: as §1

[16] = test system: johnsongrass (Sorghum halepense); assay: Test C preemergence; details: for Plant response rating, Johnsongrass: scale 0 to 100, 0 no effect, 100 complete control
Procedure, shortened: as §1

[17] = test system: crabgrass, large (large crabgrass, Digitaria sanguinalis); assay: Test C preemergence; details: for Plant response rating, Crabgrass, Large: scale 0 to 100, 0 no effect, 100 complete control
Procedure, shortened: as §1

[18] = test system: barnyardgrass (Echinochloa crus-galli); assay: Test C flooded paddy test; details: Flood, 0 is no effect, 100 is complete control
Procedure, shortened: (§2)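 Compound was added directly to paddy water held 3 cm above the soil, with plants at the 2-leaf stage. Injury was scored visually versus untreated controls after 13–15 d greenhouse growth, using a 0–100 scale where 100 means complete control.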

[19] = test system: rice (Oryza sativa); assay: Test C flooded paddy test; details: Flood, 0 is no effect, 100 is complete control
Procedure, shortened: as §2

[20] = 31 g ai/ha, 0 is no effect, 100 is complete control

## CN1CC(c2cccc(OC(F)F)c2)C(C(=O)Nc2ccccc2F)C1=O (stereo not shown) [Compound 618]
[1]; [20]
  Plant response rating (scale of 0 to 100), Corn: 30
[1]; 62 g ai/ha
  Plant response rating, Corn: 50
[1]; 125 g ai/ha
  Plant response rating, Corn: 75
[1]; 250 g ai/ha
  Plant response rating, Corn: 85
[2]; [20]
  Plant response rating (scale of 0 to 100), Morningglory: 0
[2]; 62 g ai/ha
  Plant response rating, Morningglory: 0
[2]; 125 g ai/ha
  Plant response rating, Morningglory: 10
[2]; 250 g ai/ha
  Plant response rating, Morningglory: 5
[3]; [20]
  Plant response rating (scale of 0 to 100), Nutsedge, Yellow: 0
[3]; 62 g ai/ha
  Plant response rating, Nutsedge, Yellow: 0
[3]; 125 g ai/ha
  Plant response rating, Nutsedge, Yellow: 0
[3]; 250 g ai/ha
  Plant response rating, Nutsedge, Yellow: 10
[4]; [20]
  Plant response rating (scale of 0 to 100), Barnyardgrass: 95
[4]; 62 g ai/ha
  Plant response rating, Barnyardgrass: 95
[4]; 125 g ai/ha
  Plant response rating, Barnyardgrass: 95
[4]; 250 g ai/ha
  Plant response rating, Barnyardgrass: 98
[5]; [20]
  Plant response rating (scale of 0 to 100), Foxtail, Giant: 90
[5]; 62 g ai/ha
  Plant response rating, Foxtail, Giant: 90
[5]; 125 g ai/ha
  Plant response rating, Foxtail, Giant: 90
[5]; 250 g ai/ha
  Plant response rating, Foxtail, Giant: 95
[6]; [20]
  Plant response rating (scale of 0 to 100), Wheat: 20
[6]; 62 g ai/ha
  Plant response rating, Wheat: 30
[6]; 125 g ai/ha
  Plant response rating, Wheat: 75
[6]; 250 g ai/ha
  Plant response rating, Wheat: 80
[7]; [20]
  Plant response rating (scale of 0 to 100), Ragweed: 40
[7]; 62 g ai/ha
  Plant response rating, Ragweed: 40
[7]; 125 g ai/ha
  Plant response rating, Ragweed: 65
[7]; 250 g ai/ha
  Plant response rating, Ragweed: 80
[8]; [20]
  Plant response rating (scale of 0 to 100), Blackgrass: 0
[8]; 62 g ai/ha
  Plant response rating, Blackgrass: 10
[8]; 125 g ai/ha
  Plant response rating, Blackgrass: 60
[8]; 250 g ai/ha
  Plant response rating, Blackgrass: 80
[9]; [20]
  Plant response rating (scale of 0 to 100), Ryegrass, Italian: 45
[9]; 62 g ai/ha
  Plant response rating, Ryegrass, Italian: 50
[9]; 125 g ai/ha
  Plant response rating, Ryegrass, Italian: 45
[9]; 250 g ai/ha
  Plant response rating, Ryegrass, Italian: 55
[10]; [20]
  Plant response rating (scale of 0 to 100), Velvetleaf: 0
[10]; 62 g ai/ha
  Plant response rating, Velvetleaf: 5
[10]; 125 g ai/ha
  Plant response rating, Velvetleaf: 55
[10]; 250 g ai/ha
  Plant response rating, Velvetleaf: 60
[11]; [20]
  Plant response rating (scale of 0 to 100), Soybean: 0
[11]; 62 g ai/ha
  Plant response rating, Soybean: 10
[11]; 125 g ai/ha
  Plant response rating, Soybean: 0
[11]; 250 g ai/ha
  Plant response rating, Soybean: 0
[12]; [20]
  Plant response rating (scale of 0 to 100), Oilseed Rape: 60
[12]; 62 g ai/ha
  Plant response rating, Oilseed Rape: 85
[12]; 125 g ai/ha
  Plant response rating, Oilseed Rape: 90
[12]; 250 g ai/ha
  Plant response rating, Oilseed Rape: 90
[13]; [20]
  Plant response rating (scale of 0 to 100), Pigweed: 40
[13]; 62 g ai/ha
  Plant response rating, Pigweed: 60
[13]; 125 g ai/ha
  Plant response rating, Pigweed: 60
[13]; 250 g ai/ha
  Plant response rating, Pigweed: 75
[14]; [20]
  Plant response rating (scale of 0 to 100), Galium: 0
[14]; 62 g ai/ha
  Plant response rating, Galium: 0
[14]; 125 g ai/ha
  Plant response rating, Galium: 85
[14]; 250 g ai/ha
  Plant response rating, Galium: 90
[15]; [20]
  Plant response rating (scale of 0 to 100), Waterhemp: 60
[15]; 62 g ai/ha
  Plant response rating, Waterhemp: 60
[15]; 125 g ai/ha
  Plant response rating, Waterhemp: 65
[15]; 250 g ai/ha
  Plant response rating, Waterhemp: 85
[16]; [20]
  Plant response rating (scale of 0 to 100), Johnsongrass: 20
[16]; 62 g ai/ha
  Plant response rating, Johnsongrass: 60
[16]; 125 g ai/ha
  Plant response rating, Johnsongrass: 85
[16]; 250 g ai/ha
  Plant response rating, Johnsongrass: 85
[17]; [20]
  Plant response rating (scale of 0 to 100), Crabgrass, Large: 100
[17]; 62 g ai/ha
  Plant response rating, Crabgrass, Large: 100
[17]; 125 g ai/ha
  Plant response rating, Crabgrass, Large: 100
[17]; 250 g ai/ha
  Plant response rating, Crabgrass, Large: 100
[18]; 31 g ai/ha
  Plant response rating (scale of 0 to 100), Barnyardgrass: 35
[18]; 62 g ai/ha
  Plant response rating (scale of 0 to 100), Barnyardgrass: 50
[18]; 125 g ai/ha
  Plant response rating (scale of 0 to 100), Barnyardgrass: 75
[18]; 250 g ai/ha
  Plant response rating (scale of 0 to 100), Barnyardgrass: 80
[19]; 31 g ai/ha
  Plant response rating (scale of 0 to 100), Rice: 0
[19]; 62 g ai/ha
  Plant response rating (scale of 0 to 100), Rice: 0
[19]; 125 g ai/ha
  Plant response rating (scale of 0 to 100), Rice: 15
[19]; 250 g ai/ha
  Plant response rating (scale of 0 to 100), Rice: 15
